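These data come from cells grown in 96-well plates and exposed to compound for 48 hours at five concentrations. At the GI50, growth is halved.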 Active and inactive are the calls of the source. Cut-off read from the data, not from the text of the source: active = GI50 up to about 1.1 µM and inactive = higher.
Legend:
Experiment in all cases: growth of human tumour cells (NCI), 48 h
HCT-116 = system: HCT-116
IGROV-1 = system: IGROV-1
NCI-H23 = system: NCI-H23
OVCAR-8 = system: OVCAR-8
UACC-62 = system: UACC-62
KM12 = system: KM12
SNB-75 = system: SNB-75
NCI-H460 = system: NCI-H460
M14 = system: M14
TK-10 = system: TK-10
ACHN = system: ACHN
786-0 = system: 786-0
Malme-3M = system: Malme-3M
HCT-15 = system: HCT-15
SF-295 = system: SF-295
SF-268 = system: SF-268

SMILES	GI50 (HCT-116)	GI50 (IGROV-1)	GI50 (NCI-H23)	GI50 (OVCAR-8)	GI50 (UACC-62)	GI50 (KM12)	GI50 (SNB-75)	GI50 (NCI-H460)	GI50 (M14)	GI50 (TK-10)	GI50 (ACHN)	GI50 (786-0)	GI50 (Malme-3M)	GI50 (HCT-15)	GI50 (SF-295)	GI50 (SF-268)
CCC1CN2CCc3cc(OC)c(OC)cc3C2CC1CC1c2cc(OC)c(OC)cc2CCN1C(=O)C1CCCN1C(=O)OCc1ccccc1 (stereo not drawn)	13.1 µM (inactive)	15.9 µM (inactive)	16.3 µM (inactive)	17.1 µM (inactive)	16.1 µM (inactive)	16.3 µM (inactive)	14.4 µM (inactive)	15.5 µM (inactive)	17.1 µM (inactive)	19.5 µM (inactive)	17.7 µM (inactive)	19.4 µM (inactive)	18.3 µM (inactive)	16.2 µM	16.5 µM (inactive)	17.1 µM (inactive)
CC(C)C1CC2C(=O)N(c3ccccc3)C(=O)C2c2[nH]c3ccccc3c21 (stereo not drawn)	4.13 µM (inactive)	34.5 µM (inactive)	19.5 µM (inactive)	7.24 µM (inactive)	24.6 µM (inactive)	9.91 µM (inactive)	6.98 µM (inactive)	4.63 µM (inactive)	38.5 µM (inactive)	23.1 µM (inactive)	4.4 µM (inactive)	21.1 µM (inactive)	25.8 µM (inactive)	14.6 µM	6.9 µM (inactive)	–
COc1ccc(C(=O)C(c2ccc(OC)cc2)C2(O)C(=O)Nc3c2ccc(Cl)c3C)cc1 (stereo not drawn)	> 100 µM (inactive)	> 100 µM (inactive)	> 100 µM (inactive)	> 100 µM (inactive)	> 100 µM (inactive)	> 100 µM (inactive)	37.3 µM (inactive)	> 100 µM (inactive)	> 100 µM (inactive)	> 100 µM (inactive)	> 100 µM (inactive)	> 100 µM (inactive)	> 100 µM (inactive)	> 100 µM	> 100 µM (inactive)	> 100 µM (inactive)
CC(C)(C)c1ccc2c(c1)S(=O)(=O)Nc1ccccc1NS(=O)(=O)c1cc(C(C)(C)C)ccc1OCCOCCOCCO2	> 100 µM (inactive)	> 100 µM (inactive)	> 100 µM (inactive)	70 µM (inactive)	64.6 µM (inactive)	> 100 µM (inactive)	39.2 µM (inactive)	> 100 µM (inactive)	> 100 µM (inactive)	> 100 µM (inactive)	> 100 µM (inactive)	> 100 µM (inactive)	33.5 µM (inactive)	> 100 µM	71 µM (inactive)	48.4 µM (inactive)
N#CC(/C(=N\NC(=O)c1ccncc1)C(=O)Nc1ccc([N+](=O)[O-])cc1[N+](=O)[O-])c1nc(-c2ccc(Br)cc2)cs1 (stereo not drawn)	> 100 µM (inactive)	> 100 µM (inactive)	–	> 100 µM (inactive)	> 100 µM (inactive)	> 100 µM (inactive)	> 100 µM (inactive)	> 100 µM (inactive)	> 100 µM (inactive)	> 100 µM (inactive)	> 100 µM (inactive)	> 100 µM (inactive)	> 100 µM (inactive)	> 100 µM	> 100 µM (inactive)	> 100 µM (inactive)
COS(=O)c1cc(Cl)cc(Cl)c1OC(=O)CSSCC(=O)Oc1c(Cl)cc(Cl)cc1S(=O)OC (stereo not drawn)	–	19.4 µM (inactive)	11.2 µM (inactive)	20.5 µM (inactive)	6.97 µM (inactive)	14.8 µM (inactive)	24.7 µM (inactive)	8.69 µM (inactive)	18.8 µM (inactive)	34.5 µM (inactive)	21 µM (inactive)	22.4 µM (inactive)	15.2 µM (inactive)	14.4 µM	19.5 µM (inactive)	7.26 µM (inactive)
CCSC(SCC)c1cc2c(cc1Br)OCO2	18.7 µM (inactive)	55.8 µM (inactive)	26.7 µM (inactive)	31.3 µM (inactive)	28.5 µM (inactive)	35.6 µM (inactive)	18.8 µM (inactive)	18.5 µM (inactive)	16.9 µM (inactive)	44.7 µM (inactive)	40.3 µM (inactive)	33 µM (inactive)	–	9.64 µM	24.5 µM (inactive)	35 µM (inactive)

Reference: ChEMBL document CHEMBL1201862, “PubChem BioAssay data set” (2004)
